Measurements from patent US20240165123A1, “USE OF A COMPOUND CONTAINING A TRICYCLIC HETEROARYL GROUP” (CSPC Zhongqi Pharmaceutical Technology (Shijiazhuang) Co., …, priority 2021, published 2024).

How the values were obtained:
[1] = Toxicity test of oral gavage administration in SD rats, 28 consecutive days; assay type: in vivo; details: for AUC: NOAEL 10 mg/kg/time BID, 28-day test; for Safety window, exposure method: NOAEL 28-day test
Experimental: (§1) According to the general toxicology study in accordance with the NMPA “Good Laboratory Practice for Non-clinical Laboratory Studies” and FDA GLP specification (21CFR Part 58), and in line with the requirements of International Conference on Harmonization of Technical Requirements for Registration of Pharmaceuticals for Human Use (ICH) and the NMPA relevant guidelines, the toxicology study on Compound (I) was carried out to provide safety data support for the use of Compound (I) in clinical patients. The administration mode and the experimental results were as follows: […]

[2] = Toxicity test of oral gavage administration in Beagle dogs, 28 consecutive days; assay type: in vivo; details: for AUC: NOAEL 3 mg/kg/time BID, 28-day test
Experimental: as §1

In the case of `NC(=O)c1cnc(Nc2ccc3c(c2)OC[C@H]2CN(S(=O)(=O)C4CC4)CCN32)nc1NC1CC1` [Compound (I), (R)-4-(cyclopropylamino)-2-((3-(cyclopropylsulfonyl)-1,2,3,4,4a,5-hexahydrobenzo[b]pyrazolo[1,2-d][1,4]oxazin-8-yl)amino)pyrimidine-5-arboxamide], the “Safety window, according to the exposure” value ([1]; SD rats, both sexes, NOAEL 28-day test vs rat effective dose exposure) is reported as 8-13 fold, the “Safety window, dose method” value ([1]; SD rats, NOAEL 28-day test vs rat effective dose) is reported as 3 fold and the “Safety window of human equivalent dose of NOAEL relative to the human initial dose” value ([1]; SD, rat, in vivo, 28 days) is reported as 16 fold. For the same compound, the NOAEL at 28 days ([1]; SD, rat, in vivo, po) was 20 mg/kg/day, the AUC ([1]; female, SD, rat, in vivo, po, rats ♀) was 58100 ng·h/mL and the AUC ([1]; male, SD, rat, in vivo, po, rats ♂) was 33900 ng·h/mL. For the same compound, the “Human equivalent dose (based on 60 kg body weight)” value ([1]; of NOAEL for 28-day test of rats) was 242 mg, the “NOAEL of repeated administration for 28 days” value ([1]; rat, in vivo, po) was 10 mg/kg/time and the “Safety window, exposure method” value ([1]; rats ♀) was “♀13 fold”. The “Safety window, exposure method” value ([1]; rats ♂) was “♂8 fold”, the “Safety window, dose method” value ([2]; Beagle dogs, NOAEL 28-day test vs rat effective dose) was 3 fold and the “Safety window, exposure method” value ([2]; Beagle dogs, NOAEL 28-day test vs rat effective dose exposure) was 1 fold. For the same compound, the “Safety window of human equivalent dose of NOAEL relative to the human initial dose” value ([2]; beagle, dog, in vivo, 28 days) was 14 fold, the NOAEL at 28 days ([2]; beagle, dog, in vivo, po) was 6 mg/kg/day and the “NOAEL of repeated administration for 28 days” value ([2]; dog, in vivo, po) was 3 mg/kg/time. The AUC ([2]; female, beagle, dog, in vivo, po, dogs ♀) was 3930 ng·h/mL, the AUC ([2]; male, beagle, dog, in vivo, po, dogs ♂) was 3300 ng·h/mL and the “Human equivalent dose (based on 60 kg body weight)” value ([2]; of NOAEL for 28-day test of dogs) was 210 mg.
